Consider one molecule from US7157107B2, “Method for producing eggs with low cholesterol level” (priority 2004, dated 2007).

The subject of one series is Hy-line laying hens. The series can be described thus: Monacolin K residue remained in eggs (HPLC). As to conditions: hens fed basal diet containing 0.056% monacolin K (highest red mold rice content) for 42 days, FIG. 3. It is filed as in vivo, hen. As to the method: The method for determining whether there is any monacolin K residue remained comprised the following steps. 20 mL acetonitrile-water (9:1, v/v) is added into 10 grams of egg samples (including yolk samples and albumen samples which are separated from eggs laid by hens fed with red mold rice of the highest content for 42 days), vibrated for 60 min through ultrasonic vibration, stirred and mixed for 15 min. Then, after the solid is separated off through a Whatman No. 1 filter paper, equal volume of acetonitrile is added into a 4 mL egg sample, filtered via a filter membrane of 0.45 μm pore size, and analyzed thgrough HPLC. The operating conditions for performing HPLC analysis were described as above.

In a further series the test system is hens. To be noted: cited from earlier work.

Structures are written as SMILES. Read-outs that look alike come from different tables or passages of the source.

In the case of `CC[C@H](C)C(=O)O[C@H]1C[C@@H](C)C=C2C=C[C@H](C)[C@H](CC[C@@H]3C[C@@H](O)CC(=O)O3)[C@H]21` [lovastatin], in the series with Hy-line laying hens, the “Monacolin K residue in eggs (yolk and egg white)” value is “no monacolin K residue”. Further, the “Lowering of egg cholesterol concentration” value was 7.5% in the series on hens (0.0005% lovastatin, hens of 30 weeks old, feed for 12 weeks (Mori et al.)); 12.7% with hens (0.0015% lovastatin, hens of 30 weeks old, feed for 12 weeks (Mori et al.)); 4% in the series on hens (0.03% lovastatin, hens of 18 weeks old, feed for 5 weeks (Elkin and Yan)); 7% in the series on hens (0.06% lovastatin, hens of 18 weeks old, feed for 5 weeks (Elkin and Yan)). In addition, the “Decrease in egg cholesterol concentration” value in the series with hens (0.0035% lovastatin, hens of 69 weeks old, feed for 5 weeks (Luhman et al.)) was “no significant decrease”. In the series with hens (0.2407% lovastatin in feed for 9 days (Elkin and Rogler)), the “Decrease of egg cholesterol” value is 13%.
